# Test results published in patent US20260237072A1, “FUNCTIONAL RESPIRATORY IMAGING ANALYSIS OF SERALUTINIB FOR THE TREATMENT OF PULMONARY ARTERIAL HYPERTENSION (PAH)” (GB002, INC., priority 2023, published 2026).
# “And” between values parts separate entries of the source, which are not always exact repeats. Equal entries are not always repeated.
# Assays:
# PAH patients [1] = experiment: Clinical study: functional respiratory imaging (chest CT, automated pulmonary vascular segmentation) of pulmonary arterial blood vessel volume distribution; assay type: in vivo, human
# Experimental: (§1) A clinical study was undertaken to examine the effect of Seralutinib on pulmonary arterial blood vessel volume distribution in PAH patients. Seralutinib was administered twice daily (BID) for 24 weeks, via dry powder inhalation, to PAH patients (WHO Group I, functional class II or III). Thin-section, volumetric non-contrast chest CTs were obtained (at baseline and week 24, minimum of 64 slices), followed by automated pulmonary vascular segmentation to evaluate the reverse remodeling potential of seralutinib.
# From the scans, paired inspiratory-expiratory high-resolution non-contrast computer tomography studies were performed and the lobar tissue, airways and vasculature were reconstructed. Vasculature volumes are provided as a total blood volume (BV), and as BVX values, which divide the pulmonary blood volume depending on the size vessel in which the blood is contained, wherein:
# Blood vessel volumes (BVV) of pulmonary arteries with a CSA<5 mm^2 (BV5A) and >10 mm^2 (BV10A) were calculated, and the BV5A to BV10A ratio (BV510ARATIO) was used to express relative redistribution of pulmonary arterial blood vessel volume. Linear regression was used to model the treatment effect.
# (§2) Baseline and Week 24 CTs were obtained in 19 subjects (7 receiving seralutinib, 12 receiving placebo), mean age 49±12 years, 18 were female, as presented in Tables 1 and 2. All subjects were receiving two or three approved PAH-specific medications.
# (§3) Case study 2 was of a person with WHO functional class II idiopathic PAH+severe rheumatoid arthritis receiving approved PAH Triple Therapy (ERA+PDE-5i+PRA).
# PAH patients [2] = experiment: Clinical study: change from baseline to week 24 in clinical parameters (PVR, MPAP, PAC, 6MWD, NTproBNP); assay type: in vivo, human; parameters: MPAP Change / 6MWD change / NTproBNP change: unit not given here
# Experimental: as §1, §2, §3
# [3] = Case Study 2, baseline to week 24, lung images
# [4] = treatment effect vs placebo, week 24, linear regression
# [5] = individual PAH patient, baseline to week 24, BID dry powder inhalation
smiles,measurement,setting,value
"COc1ccc(-c2cncc(N[C@@H](C)c3cccc(NC(=O)c4cncc(C)c4)c3)n2)cc1OC [Seralutinib, N-{3-[(1S)-1-{[6-(3,4-dimethoxyphenyl)pyrazin-2-yl]amino}ethyl]phenyl}-5-methylpyridine-3-carboxamide]",BV5A/BV10A ratio,PAH patients [1]; [3],Increase
same,Decrease in BV10APRA,PAH patients [1]; [3],8%
same,Increase in BV5APRA,PAH patients [1]; [3],6%
same,BV5A PRA (%)*,"PAH patients [1]; Case Study 2, week 24",+5.6%
same,BV10A PRA (%)*,"PAH patients [1]; Case Study 2, week 24",−7.7%
same,BV510A RATIO,"PAH patients [1]; Case Study 2, week 24",+2.5
same,redistribution of pulmonary arterial blood vessel volume to more distal vessels,"PAH patients [1]; subjects with PAH on dual or triple PAH therapies, seralutinib added",significant redistribution
same,BV5APRA regression model effect estimate,PAH patients [1]; [4],2.625
same,BV5PR regression model effect estimate,PAH patients [1]; [4],1.835
same,BV10APRA regression model effect estimate,PAH patients [1]; [4],−2.711
same,BV10PR regression model effect estimate,PAH patients [1]; [4],−2.180
same,BV510RATIO regression model effect estimate,PAH patients [1]; [4],0.843
same,BV510ARATIO regression model effect estimate,"PAH patients [1]; treatment effect vs placebo, week 24, linear regression, 7 seralutinib, 12 placebo",0.845
same,least squares mean difference value of the BV510ARatio,"PAH patients [1]; vs placebo, 95% CI 0.105, 1.585, p-value 0.028",0.845
same,BV510A Ratio in the seralutinib group compared to placebo,"PAH patients [1]; week 24, p=0.028",significantly higher
same,PVR coincident with arterial volume shifts,"PAH patients [2]; Case Study 2, baseline to week 24",Improvement
same,6MWD change,"PAH patients [2]; Case Study 2, week 24",−48
same,NTproBNP change,"PAH patients [2]; Case Study 2, week 24",41
same,PVR Change,"PAH patients [2]; Case Study 2, week 24, PVR baseline 408",−159
same,MPAP Change,PAH patients [2]; [5],−4 and −3 (2×) and −8 and 3 and −2
same,PAC Change (pulmonary arterial compliance),PAH patients [2]; [5],0.65 and 0.24 and 0.85 and 0.31 and 0.11 and 0.32
same,PVR Change,PAH patients [2]; [5],−159 and −11 and −52 and −235 and −139 and −171
